# Experimental data taken from US20260109690A1, “HDAC6 INHIBITORS AND METHOD OF THEIR USE” (Baerenkraft Therapeutics, LLC., priority 2024, published 2026).
# Entries after “also recorded” stand apart in the source; their conditions may differ.
# Legend:
# [1] = system: acetyl-α-tubulin in SH-SY5Y neuroblastoma cells; test: Western blot of acetylated alpha-tubulin in SH-SY5Y neuroblastoma cells; type: cell-based; conditions: 1 μM and 10 μM, 24 hours
# Protocol: SH-SY5Y neuroblastoma cells were seeded at 1,000,000 cells/well of three 6-well plates and incubated for 24 hours. Cells were treated with 2 control and experimental HDAC6 inhibitors at 1 μM and 10 μM for 24-hours. Following treatment, cells were lysed, and proteins extracted for western blot. Proteins were separated by gel electrophoresis and transferred to nitrocellulose membranes. Membranes were blocked and probed with primary Abs overnight.
# acetyl-α-tubulin (Lys40)(D20G3); Cell Signaling Technologies, #5335S
# GAPDH; Millipore Sigma, #MAB374
# Membranes were probed with secondary Abs for 1 hour and then the blots were imaged using the iBright 1500 (ThermoFisher)
# [2] = target: T1, HDAC11 (Homo sapiens, UniProt Q96DB2); test: HDAC selectivity panel: HDAC11; type: biochemical
# T1 sequence (Q96DB2 1-347): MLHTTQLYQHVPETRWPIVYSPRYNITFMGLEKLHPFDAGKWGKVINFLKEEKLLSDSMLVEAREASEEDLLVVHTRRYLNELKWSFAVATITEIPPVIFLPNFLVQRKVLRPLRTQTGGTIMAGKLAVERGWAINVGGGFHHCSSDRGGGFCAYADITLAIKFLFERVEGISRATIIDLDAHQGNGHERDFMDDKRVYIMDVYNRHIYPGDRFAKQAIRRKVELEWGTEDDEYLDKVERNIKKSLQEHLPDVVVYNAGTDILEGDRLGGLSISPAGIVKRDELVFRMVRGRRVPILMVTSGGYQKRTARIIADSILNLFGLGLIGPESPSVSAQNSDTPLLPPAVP
# [3] = target: HDAC1 (Homo sapiens, UniProt Q13547); test: HDAC selectivity panel: HDAC1; type: biochemical
# [4] = system: B6SJL.SOD1-G93A transgenic mouse model of amyotrophic lateral sclerosis; test: ALS mouse model: beam walk test; type: in vivo, mice
# Excerpt: Beam walk test was used for the assessment of motor coordination or balance of animals. The beam apparatus consisted of 1-meter beams with a flat surface of 6 mm width resting 50 cm above the tabletop on two poles. Animals were placed at one end of the beam, allowed to traverse the beam and reach another end with a cage filled with the home cage bedding. Animals were trained on beams for 2 consecutive days, 3 trials per day with 30 s inter-trial interval. On day 3 (day of test), animals were tested on the beam. A total 3 trials were performed, and time taken to traverse the beam & number of slips were recorded, average data was analyzed. For animals unable to traverse the beam, a cutoff time of 60 s was assigned.
# Note: Number of slips were recorded until week 12 due to disease progression after that.
# Note: Behavioral tests were performed once in two weeks, i.e. at week 10, 12, 14 and 16.
# [5] = target: HDAC4 (Homo sapiens, UniProt P56524); test: HDAC selectivity panel: HDAC4; type: biochemical
# [6] = ALS mouse model: body weight; type: in vivo; conditions: SOD1-G93A mice, in g (unit assumed)
# Protocol: Mice were weighed and randomized into different groups and age matched control groups were kept as such. Test compound I-8 was freshly formulated and administered to the respective animals of each group as per body weight. Animals in G1 and G2 were administered with vehicle. G3 and G4 group animals were dosed with compound I-8 at the dose of 15 mg/kg and 30 mg/kg respectively, per orally; Q.D. G4 animals were administered 30 mg/kg dose until day 34 and 50 mg/kg from day 35 onwards.
# The body weight of each animal was recorded at the time of randomization and once in 2 days during the study period.
# [7] = target: HDAC5 (Homo sapiens, UniProt Q9UQL6); test: HDAC selectivity panel: HDAC5; type: biochemical
# [8] = target: T2, HDAC8 (Homo sapiens, UniProt Q9BY41); test: HDAC selectivity panel: HDAC8; type: biochemical
# T2 sequence (Q9BY41 1-377): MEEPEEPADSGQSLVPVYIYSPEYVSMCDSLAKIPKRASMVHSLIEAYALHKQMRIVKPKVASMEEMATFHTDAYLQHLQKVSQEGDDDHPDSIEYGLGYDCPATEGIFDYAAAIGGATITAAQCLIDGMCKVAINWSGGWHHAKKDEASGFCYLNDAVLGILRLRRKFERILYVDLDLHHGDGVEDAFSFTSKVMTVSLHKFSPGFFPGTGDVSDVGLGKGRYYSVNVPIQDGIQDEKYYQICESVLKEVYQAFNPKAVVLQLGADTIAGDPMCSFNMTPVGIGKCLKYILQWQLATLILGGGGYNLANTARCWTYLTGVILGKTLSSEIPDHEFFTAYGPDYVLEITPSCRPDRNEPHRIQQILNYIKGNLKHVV
# HDAC1, sequence (Q13547 whole entry, species assumed): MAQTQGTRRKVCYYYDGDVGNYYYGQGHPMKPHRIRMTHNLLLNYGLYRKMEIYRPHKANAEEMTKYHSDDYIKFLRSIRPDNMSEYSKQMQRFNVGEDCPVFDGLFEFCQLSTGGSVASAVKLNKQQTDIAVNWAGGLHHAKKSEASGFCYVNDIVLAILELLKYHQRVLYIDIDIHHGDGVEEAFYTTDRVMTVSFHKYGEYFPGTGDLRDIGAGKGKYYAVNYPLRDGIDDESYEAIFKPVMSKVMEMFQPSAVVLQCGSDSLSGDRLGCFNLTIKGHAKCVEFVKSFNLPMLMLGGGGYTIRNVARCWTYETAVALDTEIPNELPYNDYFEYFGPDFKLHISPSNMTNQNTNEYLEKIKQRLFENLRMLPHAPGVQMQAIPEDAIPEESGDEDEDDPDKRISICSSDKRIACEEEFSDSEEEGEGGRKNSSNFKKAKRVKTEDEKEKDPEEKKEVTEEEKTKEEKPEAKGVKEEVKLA
# HDAC4, sequence (P56524 whole entry, species assumed): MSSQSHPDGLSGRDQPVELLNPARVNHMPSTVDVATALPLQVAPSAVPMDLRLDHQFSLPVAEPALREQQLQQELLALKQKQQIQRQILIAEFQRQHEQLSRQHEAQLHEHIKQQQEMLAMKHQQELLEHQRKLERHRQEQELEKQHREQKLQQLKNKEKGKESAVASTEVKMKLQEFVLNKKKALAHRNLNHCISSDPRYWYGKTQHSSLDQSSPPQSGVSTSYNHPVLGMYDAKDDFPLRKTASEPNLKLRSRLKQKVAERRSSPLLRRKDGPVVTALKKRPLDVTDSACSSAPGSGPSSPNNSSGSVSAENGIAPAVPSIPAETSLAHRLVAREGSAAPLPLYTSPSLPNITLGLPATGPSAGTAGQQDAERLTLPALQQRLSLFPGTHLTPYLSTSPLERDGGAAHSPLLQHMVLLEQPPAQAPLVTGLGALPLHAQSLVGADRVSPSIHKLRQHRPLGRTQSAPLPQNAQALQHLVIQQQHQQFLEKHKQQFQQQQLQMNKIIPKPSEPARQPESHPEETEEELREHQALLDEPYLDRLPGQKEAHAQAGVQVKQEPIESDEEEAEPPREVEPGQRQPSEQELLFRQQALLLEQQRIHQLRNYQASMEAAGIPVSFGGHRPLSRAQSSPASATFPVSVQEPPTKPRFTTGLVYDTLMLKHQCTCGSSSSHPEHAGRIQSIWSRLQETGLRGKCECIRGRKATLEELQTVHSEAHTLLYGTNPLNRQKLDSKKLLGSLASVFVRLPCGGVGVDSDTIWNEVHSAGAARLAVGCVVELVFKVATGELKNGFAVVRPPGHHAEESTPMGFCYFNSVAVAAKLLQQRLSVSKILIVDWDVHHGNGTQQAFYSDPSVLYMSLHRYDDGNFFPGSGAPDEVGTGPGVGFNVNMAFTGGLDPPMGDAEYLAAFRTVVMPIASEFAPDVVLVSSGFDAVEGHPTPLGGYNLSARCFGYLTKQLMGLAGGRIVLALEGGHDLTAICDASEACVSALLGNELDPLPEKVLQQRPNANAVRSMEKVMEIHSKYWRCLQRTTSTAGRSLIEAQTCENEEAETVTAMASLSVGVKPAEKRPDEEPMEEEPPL
# HDAC5, sequence (Q9UQL6 whole entry, species assumed): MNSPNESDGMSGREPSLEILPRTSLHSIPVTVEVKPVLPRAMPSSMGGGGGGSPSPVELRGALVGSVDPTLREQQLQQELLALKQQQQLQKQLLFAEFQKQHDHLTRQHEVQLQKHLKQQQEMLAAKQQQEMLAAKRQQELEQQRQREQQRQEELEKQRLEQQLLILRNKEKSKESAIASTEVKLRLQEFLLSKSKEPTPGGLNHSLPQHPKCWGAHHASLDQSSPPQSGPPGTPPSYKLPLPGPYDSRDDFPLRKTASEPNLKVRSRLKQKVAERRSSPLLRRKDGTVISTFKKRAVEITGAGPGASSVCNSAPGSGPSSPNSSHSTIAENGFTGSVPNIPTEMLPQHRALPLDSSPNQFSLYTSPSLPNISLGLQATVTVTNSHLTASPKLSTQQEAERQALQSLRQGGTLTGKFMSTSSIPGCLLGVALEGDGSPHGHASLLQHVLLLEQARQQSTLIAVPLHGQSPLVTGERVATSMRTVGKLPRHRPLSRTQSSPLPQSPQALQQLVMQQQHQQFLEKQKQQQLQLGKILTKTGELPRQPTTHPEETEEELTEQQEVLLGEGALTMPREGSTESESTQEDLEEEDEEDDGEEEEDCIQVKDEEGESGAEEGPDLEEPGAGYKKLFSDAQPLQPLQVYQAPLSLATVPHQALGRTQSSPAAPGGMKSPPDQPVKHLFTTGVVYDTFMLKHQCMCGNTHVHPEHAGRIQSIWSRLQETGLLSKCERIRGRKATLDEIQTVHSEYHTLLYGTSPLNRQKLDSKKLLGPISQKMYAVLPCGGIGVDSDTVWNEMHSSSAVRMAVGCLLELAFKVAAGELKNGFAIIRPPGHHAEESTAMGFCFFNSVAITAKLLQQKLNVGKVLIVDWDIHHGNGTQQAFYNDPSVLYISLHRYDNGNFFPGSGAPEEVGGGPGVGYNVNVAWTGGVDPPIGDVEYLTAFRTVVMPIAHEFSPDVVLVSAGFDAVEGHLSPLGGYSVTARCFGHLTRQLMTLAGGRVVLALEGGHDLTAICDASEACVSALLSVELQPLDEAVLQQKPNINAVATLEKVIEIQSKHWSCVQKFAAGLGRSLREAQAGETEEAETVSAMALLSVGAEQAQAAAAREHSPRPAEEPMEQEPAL
compound,measurement,setting,value
"CC1CN(Cc2ccc(Nc3nccc(-c4ccc(C(=O)NO)cc4)n3)cc2F)CCO1 (racemic) [Compound I-8, 4-(2-((3-fluoro-4-((2-methylmorpholino)methyl)phenyl)amino)pyrimidin-4-yl)-N-hydroxybenzamide]",acetylation of α-tubulin (Western blot),[1],induce acetylation of α-tubulin in SH-SY5Y neuroblastoma cells in a dose-dependent manner; also recorded: induces acetylation α-tubulin
same,IC50,[2],0.416 µM
same,IC50,[3],1.18 µM
same,Beam Walk Test- Latency to traverse the beam,"[4]; G3 15 mg/kg p.o. QD, Week 10",21.37 ± 5.99 s
same,Beam Walk Test: Number of Slips,"[4]; G3 15 mg/kg p.o. QD, Week 10",1.42 ± 0.14
same,Beam Walk Test- Latency to traverse the beam,"[4]; G3 15 mg/kg p.o. QD, Week 12",25.96 ± 5.59 s
same,Beam Walk Test: Number of Slips,"[4]; G3 15 mg/kg p.o. QD, Week 12",0.93 ± 0.19
same,Beam Walk Test- Latency to traverse the beam,"[4]; G3 15 mg/kg p.o. QD, Week 14",20.52 ± 6.85 s
same,Beam Walk Test- Latency to traverse the beam,"[4]; G3 15 mg/kg p.o. QD, Week 16",58.21 ± 1.79 s
same,Beam Walk Test- Latency to traverse the beam,"[4]; G4 30 mg/kg (50 mg/kg from day 34) p.o. QD, Week 10",17.04 ± 5.71 s
same,Beam Walk Test- Latency to traverse the beam,"[4]; G4 30 mg/kg (50 mg/kg from day 34) p.o. QD, Week 12",29.83 ± 6.82 s
same,Beam Walk Test- Latency to traverse the beam,"[4]; G4 30 mg/kg (50 mg/kg from day 34) p.o. QD, Week 14",25.29 ± 7.64 s
same,Beam Walk Test- Latency to traverse the beam,"[4]; G4 30 mg/kg (50 mg/kg from day 34) p.o. QD, Week 16, cutoff time 60 s",60 ± 0 s
same,Beam Walk Test: Number of Slips,"[4]; G4 30 mg/kg p.o. QD, Week 10",1.33 ± 0.40
same,Beam Walk Test: Number of Slips,"[4]; G4 30 mg/kg p.o. QD, Week 12",1.38 ± 0.34
same,latency to traverse the beam vs. G2,"[4]; G4, week 10",significant reduction in latency to traverse the beam
same,"motor balance compared to G2, disease control group","[4]; G4, week 10",significant improvement was observed in motor balance
same,IC50,[5],11.1 µM
same,Body weight,"[6]; G3 15 mg/kg p.o. QD, Day 1",25.99 ± 0.73
same,Body weight,"[6]; G3 15 mg/kg p.o. QD, Day 7",25.97 ± 0.70
same,Body weight,"[6]; G3 15 mg/kg p.o. QD, Day 13",26.54 ± 0.52
same,Body weight,"[6]; G3 15 mg/kg p.o. QD, Day 21",26.81 ± 0.45
same,Body weight,"[6]; G3 15 mg/kg p.o. QD, Day 27",26.51 ± 0.46
same,Body weight,"[6]; G3 15 mg/kg p.o. QD, Day 35",26.76 ± 0.43
same,Body weight,"[6]; G3 15 mg/kg p.o. QD, Day 43",26.60 ± 0.50
same,Body weight,"[6]; G3 15 mg/kg p.o. QD, Day 49",25.47 ± 0.62
same,Body weight,"[6]; G3 15 mg/kg p.o. QD, Day 52",24.52 ± 0.68
same,Body weight,"[6]; G4 30 mg/kg (50 mg/kg from day 34) p.o. QD, Day 1",25.66 ± 0.48
same,Body weight,"[6]; G4 30 mg/kg (50 mg/kg from day 34) p.o. QD, Day 7",25.64 ± 0.40
same,Body weight,"[6]; G4 30 mg/kg (50 mg/kg from day 34) p.o. QD, Day 13",26.14 ± 0.52
same,Body weight,"[6]; G4 30 mg/kg (50 mg/kg from day 34) p.o. QD, Day 21",27.53 ± 0.60
same,Body weight,"[6]; G4 30 mg/kg (50 mg/kg from day 34) p.o. QD, Day 27",27.29 ± 0.52
same,Body weight,"[6]; G4 30 mg/kg (50 mg/kg from day 34) p.o. QD, Day 35",26.55 ± 0.57
same,Body weight,"[6]; G4 30 mg/kg (50 mg/kg from day 34) p.o. QD, Day 43",26.04 ± 0.60
same,Body weight,"[6]; G4 30 mg/kg (50 mg/kg from day 34) p.o. QD, Day 49",24.30 ± 0.96
same,Body weight,"[6]; G4 30 mg/kg (50 mg/kg from day 34) p.o. QD, Day 52 (n = 6-8)",24.75 ± 0.45
same,IC50,[7],7.77 µM
same,IC50,[8],0.102 µM
